Assay results as given in PMC4941645, “Oxidative Stress Induced by Pt(IV) Pro-drugs Based on the Cisplatin Scaffold and Indole Carboxylic Acids in Axial Position” (Scientific Reports, 2016).

Columns and labels:
[1] = system: 2008 ovarian cancer cells; test: MTT cytotoxicity test, cisplatin-sensitive 2008; format: cell-based, human; details: 2008 cisplatin-sensitive, 72 h, ± S.D.
Description: The cytotoxic properties of the complexes were also evaluated in a pair of tumor cell lines suitably selected for their sensitivity and resistance to cisplatin (adenocarcinoma cells 2008/C13^*). Cross-resistance profiles were evaluated by means of the resistance factor (RF), defined as the ratio between IC50 values calculated for the resistant cells and those obtained with the sensitive ones (Table 2). The phenomenon of cisplatin resistance is multifactorial in nature. Nevertheless, the main molecular mechanisms involved in drug resistance in C13* cancer cells have largely been identified. Indeed, in this cell line resistance is correlated to high cellular glutathione and thioredoxin reductase levels, reduced cellular drug uptake and enhanced repair of DNA damage. […] The RF values calculated for all derivatives were six- to nine-fold lower than that of cisplatin, clearly indicating the absence of cross-resistance.
(§1) Cisplatin was dissolved in 0.9% NaCl solution.
Triplicate cultures were established for each treatment.

[2] = system: C13* cisplatin-resistant ovarian cancer cells; test: MTT cytotoxicity test, cisplatin-resistant C13*; format: cell-based, human; details: for IC50: C13* cisplatin-resistant, 72 h, MTT, ± S.D.; for RF (resistance factor): IC50 resistant (C13*) / parent line (2008)
Description: The cytotoxic properties of the complexes were also evaluated in a pair of tumor cell lines suitably selected for their sensitivity and resistance to cisplatin (adenocarcinoma cells 2008/C13^*). Cross-resistance profiles were evaluated by means of the resistance factor (RF), defined as the ratio between IC50 values calculated for the resistant cells and those obtained with the sensitive ones (Table 2). The phenomenon of cisplatin resistance is multifactorial in nature.
as §1
(§2) Human breast (MCF-7), colon (HCT-15), lung (A549) and pancreatic (BxPC3) carcinoma cell lines together with melanoma (A375) cells were obtained from American Type Culture Collection (ATCC, Rockville, MD). The human ovarian cancer cell line 2008 and its cisplatin resistant variant, C13*, were kindly provided by Prof. G. Marverti (Department of Biomedical Science of Modena University, Italy). Human cervical carcinoma (A431) cells were kindly provided by Prof. F. Zunino (Division of Experimental Oncology B, Istituto Nazionale dei Tumori, Milan, Italy). Cell lines were maintained in the logarithmic phase at 37 °C in a 5% carbon dioxide atmosphere using the following culture media containing 10% fetal calf serum (Euroclone, Milan, Italy), antibiotics (50 units/mL penicillin and 50 μg/mL streptomycin) and 2 mM L-glutamine: (i) RPMI-1640 medium (Euroclone) for 2008, C13*, MCF-7, HCT-15, A431 and BxPC3 cells, (ii) F-12 HAM’S (Sigma Chemical Co.) for A549 cells, iii) DMEM (Sigma Chemical Co.) for A375 cells.
(§3) The growth inhibitory effect toward tumor cells was evaluated by means of the MTT assay. Briefly, (3–8) × 10^3 cells/well, dependent upon the growth characteristics of the cell line, were seeded in 96-well microplates in growth medium (100 μL). After 24 h, the medium was removed and replaced with fresh medium containing the compound to be studied at the appropriate concentration. Triplicate cultures were established for each treatment. After 24, 48, or 72 h, each well was treated with 10 μL of a 5 mg/mL MTT saline solution and, after 5 h of incubation, 100 μL of a sodium dodecylsulfate (SDS) solution in 0.01 M HCl was added. After an overnight incubation, cell growth inhibition was detected by measuring the absorbance of each well at 570 nm using a Bio-Rad 680 microplate reader. The mean absorbance for each drug dose was expressed as a percentage of the control, untreated well absorbance and plotted vs drug concentration. The IC50 values, the drug concentrations that decrease the mean absorbance at 570 nm to 50% of that of untreated control wells, were calculated from the dose–response curves with the four-parameter logistic model (4PL). The final value is the mean ± S.D. of at least three independent experiments performed in triplicate.

[3] = system: A549 lung carcinoma cells; test: cells; details: for IC50: A549, 72 h, MTT, ± S.D.
Description: The cytotoxic activity of the complexes and of the uncoordinated ligands was evaluated by the MTT test on a panel of human tumor cell lines containing examples of pancreatic (BxPC3), colorectal (HCT-15), breast (MCF-7), cervical (A431), and lung (A549) cancers as well as of melanoma (A375). For comparison purposes, the cytotoxicity of cisplatin was evaluated under the same experimental conditions.
as §1, §2, §3

[4] = Log P octanol/water, shake flask method with ICP-MS; format: physicochemical; details: n-octanol / 0.9% NaCl water, Pt by ICP-MS
Description: Partition coefficients (logP values) for octanol/water partition were determined in order to examine whether a correlation exists between lipophilicity and accumulation into cells. The log P values obtained (Table 3) give the trend in lipophilicity as mono indole acid complex < succinate complex < acetate complex < bis indole acid complex < benzoate complex for both the IAA and the IPA series.
The logP values of the Pt(IV) compounds were determined using the shake flask method. The respective Pt(IV) complex was dissolved in 0.9% NaCl (w/v) ultrapure water (presaturated with n-octanol). The solutions were sonicated and filtered to remove undissolved Pt(IV) compounds. The initial Pt concentrations were determined by ICP-MS. Subsequently, the Pt(IV) solutions were added to an equal volume of n-octanol (presaturated with 0.9% NaCl (w/v) ultrapure water). The heterogeneous mixtures were shaken vigorously for 30 min before centrifuging at 4000 rpm for 30 min to achieve phase separation. The final Pt concentration in the aqueous phase was determined again by ICP-MS. The logarithm of the ratio of Pt concentrations in the organic and aqueous phases was calculated to determine the logP values. All experiments were done in duplicate.

**Q.** Which results are given for [NH2][Pt]([NH2])([OH])([Cl])([Cl])[O]C(=O)Cc1c[nH]c2ccccc12 [Complex 1A]?
**A.** IC50 [1]: 2.89 ± 1.22 µM; IC50 [2]: 2.51 ± 1.5 µM; RF (resistance factor) [2]: 0.9; times more cytotoxic than cisplatin [3]: four times; IC50 [3]: 3.62 ± 0.23 µM; Log P (octanol/water) [4]: −0.220 ± 0.04

**Q.** Which IC50 [1] does the source give for [NH2][Pt]([NH2])([OH])([Cl])([Cl])[O]C(=O)CCc1c[nH]c2ccccc12 [Complex 1P, cis,cis,trans-[Pt(NH3)2Cl2(IPA)(OH)]] here?
**A.** 1.45 ± 0.37 µM

**Q.** And the IC50 [2]?
**A.** 1.14 ± 0.5 µM

**Q.** And the “RF (resistance factor)” value [2]?
**A.** 0.8

**Q.** What about the “times more cytotoxic than cisplatin” value [3] of the same compound?
**A.** four times

**Q.** And the IC50 [3]?
**A.** 2.66 ± 0.54 µM

**Q.** What about the “Log P (octanol/water)” value [4] of the same compound?
**A.** −0.110 ± 0.05

**Q.** What does the source list for [NH2][Pt]([NH2])([Cl])([Cl])([O]C(=O)Cc1c[nH]c2ccccc12)[O]C(=O)c1ccccc1 [Complex 3A]?
**A.** IC50 [1]: 9.97 ± 3.18 µM; IC50 [2]: 6.52 ± 1.96 µM; RF (resistance factor) [2]: 0.7; IC50 [3]: 2.59 ± 0.13 µM; Log P (octanol/water) [4]: −0.037 ± 0.04

**Q.** With [NH2][Pt]([NH2])([Cl])([Cl])([O]C(=O)CCC(=O)O)[O]C(=O)Cc1c[nH]c2ccccc12 [Complex 4A] as the compound, how does the IC50 [1] read?
**A.** > 50 µM

**Q.** What about the IC50 [2] of the same compound?
**A.** > 50 µM

**Q.** What about the IC50 [3] of the same compound?
**A.** 18.1 ± 4.32 µM

**Q.** What about the “Log P (octanol/water)” value [4] of the same compound?
**A.** −0.190 ± 0.06

**Q.** Which results are given for CC(=O)[O][Pt]([NH2])([NH2])([Cl])([Cl])[O]C(=O)Cc1c[nH]c2ccccc12 [Complex 5A]?
**A.** IC50 [1]: 41.2 ± 0.75 µM; IC50 [2]: 46.6 ± 3.41 µM; RF (resistance factor) [2]: 1.1; IC50 [3]: 2.8 ± 0.09 µM; Log P (octanol/water) [4]: −0.130 ± 0.05
